Source: ChEMBL document CHEMBL3132854, “Synthesis and anticancer activity evaluation of resveratrolchalcone conjugates” (2014)

Tests used:
[1] = system: SR; assay: Growth inhibition of human SR cells assessed as cell growth at 10 uM by sulforhodamine B assay relative to control; values are per cent of control
[2] = system: T47D; assay: Growth inhibition of human T47D cells assessed as cell growth at 10 uM by sulforhodamine B assay relative to control; values are per cent of control
[3] = system: BT-549; assay: Growth inhibition of human BT549 cells assessed as cell growth at 10 uM by sulforhodamine B assay relative to control; values are per cent of control
[4] = system: DU-145; assay: Growth inhibition of human DU145 cells assessed as cell growth at 10 uM by sulforhodamine B assay relative to control; values are per cent of control
[5] = Growth inhibition of human SF539 cells assessed as cell growth at 10 uM by sulforhodamine B assay relative to control; values are per cent of control; conditions: SF-539
[6] = system: SF-295; assay: Growth inhibition of human SF295 cells assessed as cell growth at 10 uM by sulforhodamine B assay relative to control; values are per cent of control
[7] = system: SF-268; assay: Growth inhibition of human SF268 cells assessed as cell growth at 10 uM by sulforhodamine B assay relative to control; values are per cent of control
[8] = system: SW-620; assay: Growth inhibition of human SW620 cells assessed as cell growth at 10 uM by sulforhodamine B assay relative to control; values are per cent of control
[9] = system: HCT-15; assay: Growth inhibition of human HCT15 cells assessed as cell growth at 10 uM by sulforhodamine B assay relative to control; values are per cent of control
[10] = Growth inhibition of human HOP92 cells assessed as cell growth at 10 uM by sulforhodamine B assay relative to control; values are per cent of control; conditions: HOP-92
[11] = system: HOP-62; assay: Growth inhibition of human HOP62 cells assessed as cell growth at 10 uM by sulforhodamine B assay relative to control; values are per cent of control
[12] = system: MOLT-4; assay: Growth inhibition of human MOLT4 cells assessed as cell growth at 10 uM by sulforhodamine B assay relative to control; values are per cent of control
[13] = Growth inhibition of human RXF393 cells assessed as cell growth at 10 uM by sulforhodamine B assay relative to control; values are per cent of control; conditions: RXF 393
[14] = system: CAKI-1; assay: Growth inhibition of human CAKI-1 cells assessed as cell growth at 10 uM by sulforhodamine B assay relative to control; values are per cent of control
[15] = Growth inhibition of human OVCAR4 cells assessed as cell growth at 10 uM by sulforhodamine B assay relative to control; values are per cent of control; conditions: OVCAR-4
[16] = system: OVCAR-3; assay: Growth inhibition of human OVCAR3 cells assessed as cell growth at 10 uM by sulforhodamine B assay relative to control; values are per cent of control
[17] = system: UACC-62; assay: Growth inhibition of human UACC62 cells assessed as cell growth at 10 uM by sulforhodamine B assay relative to control; values are per cent of control
[18] = system: HCT-116; assay: Growth inhibition of human HCT116 cells assessed as cell growth at 10 uM by sulforhodamine B assay relative to control; values are per cent of control
[19] = system: LOX IMVI; assay: Growth inhibition of human LOXIMVI cells assessed as cell growth at 10 uM by sulforhodamine B assay relative to control; values are per cent of control
[20] = system: COLO 205; assay: Growth inhibition of human COLO205 cells assessed as cell growth at 10 uM by sulforhodamine B assay relative to control; values are per cent of control
[21] = system: SK-MEL-2; assay: Growth inhibition of human SK-MEL-2 cells assessed as cell growth at 10 uM by sulforhodamine B assay relative to control; values are per cent of control
[22] = system: NCI-H226; assay: Growth inhibition of human NCI-H226 cells assessed as cell growth at 10 uM by sulforhodamine B assay relative to control; values are per cent of control
[23] = system: RPMI-8226; assay: Growth inhibition of human RPMI8226 cells assessed as cell growth at 10 uM by sulforhodamine B assay relative to control; values are per cent of control
[24] = system: NCI-H322M; assay: Growth inhibition of human NCI-H322M cells assessed as cell growth at 10 uM by sulforhodamine B assay relative to control; values are per cent of control
[25] = system: A549; assay: Growth inhibition of human A549/ATCC cells assessed as cell growth at 10 uM by sulforhodamine B assay relative to control; values are per cent of control
[26] = system: MDA-MB-231; assay: Growth inhibition of human MDA-MB-231 cells assessed as cell growth at 10 uM by sulforhodamine B assay relative to control; values are per cent of control
[27] = system: PC-3; assay: Cytotoxicity against human PC3 cells by sulforhodamine B assay; type: functional
[28] = Cytotoxicity against human UACC257 cells by sulforhodamine B assay; type: functional
[29] = system: SK-MEL-28; assay: Cytotoxicity against human SK-MEL-28 cells by sulforhodamine B assay; type: functional
[30] = system: HCT-15; assay: Cytotoxicity against human HCT15 cells by sulforhodamine B assay; type: functional
[31] = system: HCC 2998; assay: Cytotoxicity against human HCC2998 cells by sulforhodamine B assay; type: functional
[32] = system: NCI-H460; assay: Cytotoxicity against human NCI-H460 cells by sulforhodamine B assay; type: functional
[33] = read-out: LC50 (the source's name)

## COc1ccc(C(=O)/C=C/c2ccc(/C=C/c3ccc(F)cc3)cc2)cc1
[1]
  growth, % of control at 10 µM: 91%
[2]
  growth, % of control at 10 µM: 93.8%
[3]
  growth, % of control at 10 µM: 101%
[4]
  growth, % of control at 10 µM: 109%
[5]
  growth, % of control at 10 µM: 108%
[6]
  growth, % of control at 10 µM: 94.9%
[7]
  growth, % of control at 10 µM: 113%
[8]
  growth, % of control at 10 µM: 104%
[9]
  growth, % of control at 10 µM: 102%
[10]
  growth, % of control at 10 µM: 108%
[11]
  growth, % of control at 10 µM: 120%
[12]
  growth, % of control at 10 µM: 96.2%
[13]
  growth, % of control at 10 µM: 117%
[14]
  growth, % of control at 10 µM: 91.2%
[15]
  growth, % of control at 10 µM: 115%
[16]
  growth, % of control at 10 µM: 112%
[17]
  growth, % of control at 10 µM: 104%
[18]
  growth, % of control at 10 µM: 95.8%
[19]
  growth, % of control at 10 µM: 97.4%
[20]
  growth, % of control at 10 µM: 107%
[21]
  growth, % of control at 10 µM: 96.2%
[22]
  growth, % of control at 10 µM: 109%
[23]
  growth, % of control at 10 µM: 104%
[24]
  growth, % of control at 10 µM: 99.6%
[25]
  growth, % of control at 10 µM: 94.9%
[26]
  growth, % of control at 10 µM: 116%

## COc1ccc(C(=O)/C=C/c2ccc(/C=C/c3cc(OC)c(OC)c(OC)c3)cc2)cc1
[27]
  GI50: 5.65 µM
  TGI: > 100 µM
[27]; [33]
  CC50: > 100 µM
[28]; UACC-257
  GI50: 9 µM
  TGI: > 100 µM
[28]; UACC-257, read-out: LC50 (the source's name)
  CC50: > 100 µM
[29]
  GI50: 1.69 µM
  TGI: > 100 µM
[29]; [33]
  CC50: > 100 µM
[30]
  GI50: 2.42 µM
  TGI: > 100 µM
[30]; [33]
  CC50: > 100 µM
[31]
  GI50: 38.4 µM
  TGI: > 100 µM
[31]; [33]
  CC50: > 100 µM
[32]
  GI50: 8.65 µM
  TGI: > 100 µM
[32]; [33]
  CC50: > 100 µM
[1]
  growth, % of control at 10 µM: 9.61%
[2]
  growth, % of control at 10 µM: 43.4%
[3]
  growth, % of control at 10 µM: 41.6%
[4]
  growth, % of control at 10 µM: 68.4%
[5]
  growth, % of control at 10 µM: 86.3%
[6]
  growth, % of control at 10 µM: 57.9%
[7]
  growth, % of control at 10 µM: 66.2%
[8]
  growth, % of control at 10 µM: 39.3%
[9]
  growth, % of control at 10 µM: 33.6%
[10]
  growth, % of control at 10 µM: 51.9%
[11]
  growth, % of control at 10 µM: 71%
[12]
  growth, % of control at 10 µM: 9.62%
[13]
  growth, % of control at 10 µM: 71.3%
[14]
  growth, % of control at 10 µM: 74.4%
[15]
  growth, % of control at 10 µM: 65.7%
[16]
  growth, % of control at 10 µM: 41.4%
[17]
  growth, % of control at 10 µM: 53.6%
[18]
  growth, % of control at 10 µM: 17.5%
[19]
  growth, % of control at 10 µM: 24.7%
[20]
  growth, % of control at 10 µM: 68.2%
[21]
  growth, % of control at 10 µM: 65.1%
[22]
  growth, % of control at 10 µM: 72.4%
[23]
  growth, % of control at 10 µM: -0.63%
[24]
  growth, % of control at 10 µM: 64.8%
[25]
  growth, % of control at 10 µM: 36.4%
[26]
  growth, % of control at 10 µM: 76.8%

## COc1ccc(C(=O)/C=C/c2ccc(/C=C/c3ccc(Cl)cc3)cc2)cc1
[1]
  growth, % of control at 10 µM: 85.6%
[2]
  growth, % of control at 10 µM: 81.6%
[3]
  growth, % of control at 10 µM: 103%
[4]
  growth, % of control at 10 µM: 108%
[5]
  growth, % of control at 10 µM: 99.9%
[6]
  growth, % of control at 10 µM: 96.5%
[7]
  growth, % of control at 10 µM: 96.5%
[8]
  growth, % of control at 10 µM: 99.8%
[9]
  growth, % of control at 10 µM: 90.1%
[10]
  growth, % of control at 10 µM: 102%
[11]
  growth, % of control at 10 µM: 101%
[12]
  growth, % of control at 10 µM: 92.6%
[13]
  growth, % of control at 10 µM: 116%
[14]
  growth, % of control at 10 µM: 93.9%
[15]
  growth, % of control at 10 µM: 107%
[16]
  growth, % of control at 10 µM: 101%
[17]
  growth, % of control at 10 µM: 92.7%
[18]
  growth, % of control at 10 µM: 97.5%
[19]
  growth, % of control at 10 µM: 105%
[20]
  growth, % of control at 10 µM: 107%
[21]
  growth, % of control at 10 µM: 106%
[22]
  growth, % of control at 10 µM: 101%
[23]
  growth, % of control at 10 µM: 102%
[24]
  growth, % of control at 10 µM: 76.6%
[25]
  growth, % of control at 10 µM: 100%
[26]
  growth, % of control at 10 µM: 103%

## COc1ccc(/C=C/c2ccc(/C=C/C(=O)c3ccc(Cl)cc3)cc2)cc1
[1]
  growth, % of control at 10 µM: 82.4%
[2]
  growth, % of control at 10 µM: 83.4%
[3]
  growth, % of control at 10 µM: 93.4%
[4]
  growth, % of control at 10 µM: 103%
[5]
  growth, % of control at 10 µM: 109%
[6]
  growth, % of control at 10 µM: 87%
[7]
  growth, % of control at 10 µM: 96.5%
[8]
  growth, % of control at 10 µM: 102%
[9]
  growth, % of control at 10 µM: 101%
[10]
  growth, % of control at 10 µM: 98.5%
[11]
  growth, % of control at 10 µM: 105%
[12]
  growth, % of control at 10 µM: 92.5%
[13]
  growth, % of control at 10 µM: 115%
[14]
  growth, % of control at 10 µM: 92.4%
[15]
  growth, % of control at 10 µM: 102%
[16]
  growth, % of control at 10 µM: 101%
[17]
  growth, % of control at 10 µM: 105%
[18]
  growth, % of control at 10 µM: 93.3%
[19]
  growth, % of control at 10 µM: 95%
[20]
  growth, % of control at 10 µM: 111%
[21]
  growth, % of control at 10 µM: 101%
[22]
  growth, % of control at 10 µM: 112%
[23]
  growth, % of control at 10 µM: 99.2%
[24]
  growth, % of control at 10 µM: 97%
[25]
  growth, % of control at 10 µM: 91.8%
[26]
  growth, % of control at 10 µM: 117%
